In patent US20080109040A1, “METHOD OF TREATING ARRHYTHMIAS” (priority 2002, published 2008):

Columns and labels:
[1] = test system: transient outward current (Ito); assay: Transient outward current voltage clamp in isolated canine left ventricular myocytes; type: cell-based; details: for Effect on Ito: any of the test voltages
[2] = test system: patients with LQT3-ΔKPQ mutation; assay: 8-hour intravenous ranolazine infusion in patients with hereditary long QT-syndrome LQT3-ΔKPQ; type: in vivo, human
From the text: Subjects were drawn from the U.S. portion of the international LQTS Registry. Eligibility criteria for enrollment in the study were genotype confirmed LQT3-ΔKPQ mutation with QTc>0.47 sec, males or females age 18-55 years of age, and signed informed consent to participate in this study. Patients already taking beta-blocking medication were continued on the drug. Patients with an implanted pacemaker or defibrillator or those with prior cervical-thoracic sympathetic ganglionectomy were not excluded. Exclusion criteria included significant comorbility that would preclude the patient's safe participation in this study, pregnancy or women of child-bearing age not receiving appropriate contraceptive therapy with any other sodium-channel blocker, use of medications that inhibit CYP-3A4 hepatic enzymes, (including diltiazem or verapamil) and psycho-social problems that could compromise compliance with the protocol. Thirteen patients with the LQT3-ΔKPQ mutation from two unrelated families met the eligibility criteria without exclusion, and of eight contacted patients five agreed to participate in the study.
Each patient had clinical and laboratory assessment including ultrasound evaluation on Day-2. Baseline studies off drug began at 8:00 am on Day-1: 12-lead ECG recorded at 8:00 am and every 0.5 hour for 8 hours and then at 2, 4, and 16 hours thereafter; a continuous 12-lead Holter was recorded for 24 hours. The 8-hour infusion of intravenous ranolazine was started at 8:00 am on Day 1 with time-matched ECG recordings at the same times as on Day-1. The second echocardiogram was obtained just before completion of the 8-hour of ranolazine infusion on Day 1. Blood samples for plasma ranolazine concentrations were drawn at hourly intervals during the ranolazine infusion, and at 2, 4, and 16 hours following completion of ranolazine infusion on Day 1.
Five patients with LQT3-ΔKPQ mutation were prospectively investigated during 8-hour intravenous infusions of ranolazine with electrocardiographic and echocardiographic evaluation before and during ranolazine administration. Ranolazine was infused at a rate of 40 mg/hr for 3 hours, with doubling of the infusion rate during the subsequent 5 hours while obtaining hourly ranolazine blood levels.
Changes in electrocardiographic parameters from before to during ranolazine infusion were evaluated by time-matched, paired t-test analyses, with repeated measures analysis of variance (ANOVA) where appropriate. The primary pre-specified electrocardiographic QTc analysis utilized a mixed-effects linear model of the change from time-matched baseline in QTc during ranolazine infusion with a fixed effect for time and a random effect for subject. A linear regression equation relating ranolazine blood level to QTc was developed using an analysis of covariance with effects for ranolazine level, subject and the interaction of subject with ranolazine level. The echocardiographic analyses involved evaluation of baseline parameters relative to normal standards for the laboratory as well as statistical comparisons of change in specific quantitative parameters between baseline and the peak ranolazine infusion. Two-sided p-values<0.05 were considered significant.
12-lead ECGs and 24-hour 12-lead Holter ECGs were obtained to evaluate ventricular repolarization before, during, and after ranolazine infusion. The QT interval and the Fridericia corrected QT interval for heart rate (QTc) were measured according to standard criteria. QT was measured from the beginning of QRS complex to the end of T wave determined by an intersection of T wave and isoelectric line or to the nadir between T and U waves. U waves were not incorporated in the measurement of QT interval. Measurement of T-wave patterns included QT peak (ms), T-wave duration (ms), T peak-T end (ms), and T-wave amplitude (mv). The ECG parameters were measured on 3 consecutive beats in lead II, with lead aVF or V5 used if lead II was technically unsatisfactory. […]

[3] = peak ranolazine infusion vs baseline

COc1ccccc1OCC(O)CN1CCN(CC(=O)Nc2c(C)cccc2C)CC1 (racemic) [ranolazine, N-(2,6-dimethylphenyl)-4-[2-hydroxy-3-(2-methoxyphenoxy)propyl]-1-piperazineacetamide]
Effect on Ito ([1]; ranolazine 10 μM): no effect | Effect on Ito ([1]; ranolazine 20 μM): no effect | Reduction of peak Ito ([1]; ranolazine 50 μM, 4 min): less than 10 | Reduction of Ito ([1]; ranolazine 50 μM, test potential 10 mV): 10±2% | Reduction of Ito ([1]; ranolazine 100 μM, test potential 0 mV): 16±3% | Reduction of Ito ([1]; ranolazine 100 μM, test potential 10 mV): 17±4% | QTc during ranolazine ([2]; 8-hour iv infusion, baseline 558±55 ms): 532 ± 46 ms | Mean reduction in QTc from baseline ([2]; entire 8-hour iv ranolazine infusion, 5 patients): 26 ± 3 ms | Average slope of QTc vs. ranolazine plasma concentration ([2]; human, in vivo): −24 ms per 1000 ng/ml | Decrease in mitral E-wave deceleration time [2, 3]: 18% | Increase in mitral E-wave velocity [2, 3]: 27% | Shortening in left ventricular isovolumic relaxation time [2, 3]: 15% | Adverse effects ([2]; study patients): No adverse effects
